Tested on: Streptococcus agalactiae
Assay: Viability of bacteria under detergent treatment
Type: cell-based

## CCCCCCCCCCCCOS(=O)(=O)[O-].[Na+] [SDS, sodium dodecyl sulfate]
SDS concentration 0.05%
  killing of bacteria by detergent: does not kill
SDS concentration 0.1% or 0.2%
  killing of bacteria by detergent: largely killed

Reference: US12360023B2, “Method of pretreating blood sample” (LABTECHS Inc., priority 2017, dated 2025)
